Test results from the supplement of paper PMC10307832.

Key:
Assay in all cases: relative viability (nuclei count vs DMSO), 5 days (fraction); higher = more cells survive
Decitabine + Crizotinib = compound: Nc1ncn([C@H]2C[C@H](O)[C@@H](CO)O2)c(=O)n1 [Decitabine] + C[C@@H](Oc1cc(-c2cnn(C3CCNCC3)c2)cnc1N)c1c(Cl)ccc(F)c1Cl [Crizotinib] (partner 1 µM)
Procedure, shortened: (§1)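 Five library-drug doses in √10 steps were combined with a fixed anchor-drug dose, or a single drug was given alone, by pin tool to lung cancer cell lines in 1536-well plates the day after seeding. Nuclei were stained and counted after 5 days. Relative viability is the nuclei count in treated wells over that in vehicle wells, taken as the median of duplicate plates.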

Decitabine + Tozasertib = compound: Nc1ncn([C@H]2C[C@H](O)[C@@H](CO)O2)c(=O)n1 [Decitabine] + Cc1cc(Nc2cc(N3CCN(C)CC3)nc(Sc3ccc(NC(=O)C4CC4)cc3)n2)n[nH]1 [Tozasertib] (partner 0.1 µM)
Procedure, shortened: as §1

[1] = compound: O=C(C[C@H]1NCCC[C@@H]1O)Cn1cnc2cc(Br)c(Cl)cc2c1=O (racemic) [Halofuginone] + CC1(C)CCC(c2ccc(Cl)cc2)=C(CN2CCN(c3ccc(C(=O)NS(=O)(=O)c4ccc(N[C@H](CCN5CCOCC5)CSc5ccccc5)c(S(=O)(=O)C(F)(F)F)c4)cc3)CC2)C1 [Navitoclax] (partner 0.5 µM)
Procedure, shortened: as §1

[2] = compound: O=C(C[C@H]1NCCC[C@@H]1O)Cn1cnc2cc(Br)c(Cl)cc2c1=O (racemic) [Halofuginone] + O=C(CCCCCCC(=O)Nc1ccccc1)NO [Vorinostat] (partner 1 µM)
Procedure, shortened: as §1

Cell Line	relative viability (Decitabine + Crizotinib; first compound 0.1265 µM)	relative viability (Decitabine + Crizotinib; first compound 0.4 µM)	relative viability (Decitabine + Crizotinib; first compound 1.265 µM)	relative viability (Decitabine + Crizotinib; first compound 4 µM)	relative viability (Decitabine + Tozasertib; first compound 0.04 µM)	relative viability (Decitabine + Tozasertib; first compound 0.1265 µM)	relative viability (Decitabine + Tozasertib; first compound 0.4 µM)	relative viability (Decitabine + Tozasertib; first compound 1.265 µM)	relative viability (Decitabine + Tozasertib; first compound 4 µM)	relative viability ([1]; first compound 0.001 µM)	relative viability ([1]; first compound 0.003162 µM)	relative viability ([1]; first compound 0.01 µM)	relative viability ([1]; first compound 0.03162 µM)	relative viability ([1]; first compound 0.1 µM)	relative viability ([2]; first compound 0.001 µM)	relative viability ([2]; first compound 0.003162 µM)	relative viability ([2]; first compound 0.01 µM)	relative viability ([2]; first compound 0.03162 µM)	relative viability ([2]; first compound 0.1 µM)	relative viability (Decitabine + Crizotinib; first compound 0.04 µM)
PC-3 [JPC-3]	0.728	0.388	0.536	0.516	0.593	0.59	0.459	0.448	0.404	0.8	0.792	0.805	0.768	0.73	0.84	0.769	0.693	0.929	0.683	–
HCC-44	0.72	0.28	0.449	0.374	–	1.01	0.174	0.457	0.382	0.949	1.02	0.968	1.02	0.568	1.15	1.14	1.17	1.2	1.05	0.641
NCI-H2405	0.759	0.671	0.562	0.41	0.521	0.598	0.526	0.388	0.337	0.986	0.855	0.878	0.784	0.542	1.07	1.06	1.02	0.958	0.577	0.807
LXF-289	0.557	0.432	0.341	0.308	0.151	0.162	0.119	0.0869	0.0957	0.94	0.965	0.859	0.973	0.865	0.709	0.829	0.728	0.763	0.686	0.579
LOU-NH91	0.683	0.615	0.613	0.656	0.444	0.606	0.522	0.464	0.512	0.746	0.705	0.719	0.719	0.536	0.929	0.955	0.898	0.907	0.779	0.509
A549	0.658	0.348	0.13	0.102	–	–	–	–	–	1.33	1.27	1.02	0.676	0.0879	–	–	–	–	–	0.498
H3255	0.82	0.419	0.537	0.484	–	0.633	0.524	0.506	0.431	0.541	0.481	0.548	0.495	0.553	0.852	0.818	0.761	0.819	0.818	0.417
NCI-H1395	–	–	–	–	0.549	0.517	0.487	0.445	0.453	1.15	1.44	1.07	1.16	1.26	0.741	0.682	0.656	0.603	0.49	–
LC-2-ad	0.371	0.34	0.262	0.283	0.479	0.419	0.299	0.334	0.371	0.555	0.469	0.43	0.459	0.101	0.695	0.706	0.69	0.696	0.686	0.391
NCI-H838	0.314	0.228	0.248	0.2	0.196	0.236	0.188	0.191	0.176	1.17	1.24	0.994	0.954	0.208	0.752	0.746	0.703	0.507	0.16	0.389
Calu-6	0.478	0.283	0.227	0.224	–	–	–	–	–	0.896	0.956	0.884	0.258	0.092	–	–	–	–	–	0.495
NCI-H1648	–	–	–	–	0.519	0.402	0.321	0.172	0.184	–	–	–	–	–	0.624	0.488	0.522	0.415	0.61	–
LCLC-97TM1	0.16	0.18	0.15	0.101	0.167	0.17	0.129	0.11	0.0997	0.501	0.476	0.363	0.327	0.212	0.757	0.602	0.726	0.622	0.419	0.155
HCC-15	0.643	0.333	0.412	0.355	0.308	0.388	0.345	0.213	0.175	0.704	0.732	0.686	0.651	0.593	0.848	0.866	0.902	0.876	0.85	0.705
CAL-12T	0.664	0.174	0.416	0.222	0.292	0.268	–	0.21	0.219	1.54	1.37	1.24	0.974	0.565	0.876	0.897	0.746	0.651	0.445	0.612
NCI-H727	0.513	0.537	0.341	0.33	0.587	0.445	0.518	0.754	0.747	0.481	0.316	0.397	0.355	0.22	1.23	1.05	1.06	1.35	1.21	0.711
ABC-1	0.907	0.627	0.728	0.542	0.211	0.185	0.174	0.195	0.21	–	–	–	–	–	1.11	1.08	1.04	1.24	1.04	0.771
NCI-H2023	0.455	0.285	0.217	0.133	0.218	0.226	0.157	0.0961	0.122	1.02	0.986	0.926	0.577	0.15	0.81	0.64	0.56	0.453	0.0822	0.471
